Structures are written as SMILES.

In general, IC50 refers to the concentration needed to halve the response being measured.

The assay deals with T1, human PAR4 (Homo sapiens, UniProt Q96RI0).
T1 construct: expressed in transfected cells; host or cells: HEK293 PAR4 Clone 1.2A (BMS Arctic ID 383940)
T1 sequence (Q96RI0 18-385): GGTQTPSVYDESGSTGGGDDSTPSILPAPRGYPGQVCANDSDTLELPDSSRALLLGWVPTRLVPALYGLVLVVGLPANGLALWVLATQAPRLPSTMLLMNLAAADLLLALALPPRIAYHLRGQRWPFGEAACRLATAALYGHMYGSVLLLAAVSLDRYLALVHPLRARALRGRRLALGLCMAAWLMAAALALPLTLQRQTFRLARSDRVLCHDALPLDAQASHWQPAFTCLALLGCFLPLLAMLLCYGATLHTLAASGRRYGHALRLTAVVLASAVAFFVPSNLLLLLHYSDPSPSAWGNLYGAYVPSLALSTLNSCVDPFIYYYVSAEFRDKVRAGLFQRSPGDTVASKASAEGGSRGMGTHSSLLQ
The experiment in a line: PAR4 FLIPR assay: antagonism of agonist-peptide-induced calcium mobilization in PAR4-expressing HEK293 cells. In kind it is cell-based. The conditions noted are these: H-Ala-Phe(4-F)-[…]NH2-induced intracellular calcium mobilization, 11-point curves.
In the case of `COc1cnc2c(-c3nc4cc(F)c(O[C@@H](C)[C@@H](C)OC(=O)Nc5ccc6[nH]c(=O)oc6c5)nc4s3)cc(Cl)cc2c1` [Example 777, (2R,3S)-3-((2-(6-chloro-3-methoxyquinolin-8-yl)-6-fluorothiazolo[5,4-b]pyridin-5-yl)oxy) butan-2-yl (2-oxo-2,3-dihydrobenzo[d]oxazol-6-yl)carbamate], the IC50 is 8.6 nM.

Take `COc1cnc2c(-c3nc4cc(F)c(O[C@@H](C)[C@@H](C)OC(=O)Nc5ccnc(OCCC(C)(C)O)c5)nc4s3)cc(Cl)cc2c1` [Example 778, (2R,3S)-3-((2-(6-chloro-3-methoxyquinolin-8-yl)-6-fluorothiazolo[5,4-b]pyridin-5-yl)oxy) butan-2-yl (2-(3-hydroxy-3-methylbutoxy)pyridin-4-yl)carbamate]: the IC50 was found to be 3.4 nM.

As for `COc1cnc2c(-c3nc4cc(F)c(O[C@@H](C)[C@@H](C)OC(=O)Nc5ccc(OCCO)nc5)nc4s3)cc(Cl)cc2c1` [Example 779, (2R,3S)-3-((2-(6-chloro-3-methoxyquinolin-8-yl)-6-fluorothiazolo[5,4-b]pyridin-5-yl)oxy) butan-2-yl (6-(2-hydroxyethoxy)pyridin-3-yl)carbamate], the IC50 came to 3.3 nM.

For `COc1cnc2c(-c3nc4cc(F)c(O[C@@H](C)[C@@H](C)OC(=O)Nc5ccnc(OCCO)c5)nc4s3)cc(Cl)cc2c1` [Example 780, (2R,3S)-3-((2-(6-chloro-3-methoxyquinolin-8-yl)-6-fluorothiazolo[5,4-b]pyridin-5-yl)oxy) butan-2-yl (2-(2-hydroxyethoxy)pyridin-4-yl)carbamate], the IC50 amounted to 5 nM.

As for `COc1cnc2c(-c3nc4cc(F)c(O[C@@H](C)[C@@H](C)OC(=O)Nc5ccc(CCO)nc5)nc4s3)cc(Cl)cc2c1` [Example 781, (2R,3S)-3-((2-(6-chloro-3-methoxyquinolin-8-yl)-6-fluorothiazolo[5,4-b]pyridin-5-yl)oxy) butan-2-yl (6-(2-hydroxyethyl)pyridin-3-yl)carbamate], the concentration for half-maximal inhibition (IC50) worked out at 6 nM.

Regarding `COc1cnc2c(-c3nc4cc(F)c(O[C@@H](C)[C@@H](C)OC(=O)Nc5cncc(F)c5)cc4s3)cc(Cl)cc2c1` [Example 782, (2R,3S)-3-((2-(6-chloro-3-methoxyquinolin-8-yl)-5-fluorobenzo[d]thiazol-6-yl)oxy)butan-2-yl (5-fluoropyridin-3-yl)carbamate], the IC50 stood at 2.7 nM.

Turning to `COc1cnc2c(-c3nc4cc(F)c(O[C@@H](C)[C@@H](C)OC(=O)Nc5ccc(C(F)(F)F)nc5)cc4s3)cc(Cl)cc2c1` [Example 783, (2R,3S)-3-((2-(6-chloro-3-methoxyquinolin-8-yl)-5-fluorobenzo[d]thiazol-6-yl)oxy)butan-2-yl (6-(trifluoromethyl)pyridin-3-yl)carbamate], the IC50 turned out to be 4.2 nM.

For the compound `COc1cnc2c(-c3nc4cc(F)c(O[C@@H](C)[C@@H](C)OC(=O)Nc5ccc(OC)nc5)cc4s3)cc(Cl)cc2c1` [Example 784, (2R,3S)-3-((2-(6-chloro-3-methoxyquinolin-8-yl)-5-fluorobenzo[d]thiazol-6-yl)oxy)butan-2-yl (6-methoxypyridin-3-yl)carbamate], the IC50 turned out to be 2.8 nM.

With `COc1cncc(NC(=O)O[C@H](C)[C@H](C)Oc2cc3sc(-c4cc(Cl)cc5cc(OC)cnc45)nc3cc2F)c1` [Example 785, (2R,3S)-3-((2-(6-chloro-3-methoxyquinolin-8-yl)-5-fluorobenzo[d]thiazol-6-yl)oxy)butan-2-yl (5-methoxypyridin-3-yl)carbamate], the IC50 was found to be 3.5 nM.

On to `COc1cnc2c(-c3nc4cc(F)c(O[C@@H](C)[C@@H](C)OC(=O)Nc5cncc(C#N)c5)cc4s3)cc(Cl)cc2c1` [Example 786, (2R,3S)-3-((2-(6-chloro-3-methoxyquinolin-8-yl)-5-fluorobenzo[d]thiazol-6-yl)oxy)butan-2-yl (5-cyanopyridin-3-yl)carbamate], for which the half-maximal inhibitory concentration (IC50) worked out at 2.2 nM.

These data come from patent US12060347B2 (BRISTOL-MYERS SQUIBB COMPANY, priority 2016, dated 2024).
